Test [1] addresses Ba/F3(EGFR^Del19/T790M/C797S) cells (Homo sapiens, UniProt P00533, DEL746-750/T790M/C797S, cells depend on it). Description: Assay of activity on Ba/F3 cells (CTG, 72 h). It counts as cell-based. The following applies: read-out: IC50 (nM) Ba/F3 (EGFR^Del19/T790M/C797S). Summed up:
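Ba/F3 cells dependent on each EGFR triple mutant were exposed to 3-fold compound dilutions for 72 h at 37° C, 5% CO2, with CellTiter-Glo luminescence as the read-out.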

The target in the next test is T1, Ba/F3(EML4-ALK) cells (Homo sapiens, UniProt Q9UM73).
T1 construct: fused on or other part: Q9HC35 (Echinoderm microtubule-associated protein-like 4)
T1 sequence (Q9UM73 whole entry, change not shown, the tested form may be a part): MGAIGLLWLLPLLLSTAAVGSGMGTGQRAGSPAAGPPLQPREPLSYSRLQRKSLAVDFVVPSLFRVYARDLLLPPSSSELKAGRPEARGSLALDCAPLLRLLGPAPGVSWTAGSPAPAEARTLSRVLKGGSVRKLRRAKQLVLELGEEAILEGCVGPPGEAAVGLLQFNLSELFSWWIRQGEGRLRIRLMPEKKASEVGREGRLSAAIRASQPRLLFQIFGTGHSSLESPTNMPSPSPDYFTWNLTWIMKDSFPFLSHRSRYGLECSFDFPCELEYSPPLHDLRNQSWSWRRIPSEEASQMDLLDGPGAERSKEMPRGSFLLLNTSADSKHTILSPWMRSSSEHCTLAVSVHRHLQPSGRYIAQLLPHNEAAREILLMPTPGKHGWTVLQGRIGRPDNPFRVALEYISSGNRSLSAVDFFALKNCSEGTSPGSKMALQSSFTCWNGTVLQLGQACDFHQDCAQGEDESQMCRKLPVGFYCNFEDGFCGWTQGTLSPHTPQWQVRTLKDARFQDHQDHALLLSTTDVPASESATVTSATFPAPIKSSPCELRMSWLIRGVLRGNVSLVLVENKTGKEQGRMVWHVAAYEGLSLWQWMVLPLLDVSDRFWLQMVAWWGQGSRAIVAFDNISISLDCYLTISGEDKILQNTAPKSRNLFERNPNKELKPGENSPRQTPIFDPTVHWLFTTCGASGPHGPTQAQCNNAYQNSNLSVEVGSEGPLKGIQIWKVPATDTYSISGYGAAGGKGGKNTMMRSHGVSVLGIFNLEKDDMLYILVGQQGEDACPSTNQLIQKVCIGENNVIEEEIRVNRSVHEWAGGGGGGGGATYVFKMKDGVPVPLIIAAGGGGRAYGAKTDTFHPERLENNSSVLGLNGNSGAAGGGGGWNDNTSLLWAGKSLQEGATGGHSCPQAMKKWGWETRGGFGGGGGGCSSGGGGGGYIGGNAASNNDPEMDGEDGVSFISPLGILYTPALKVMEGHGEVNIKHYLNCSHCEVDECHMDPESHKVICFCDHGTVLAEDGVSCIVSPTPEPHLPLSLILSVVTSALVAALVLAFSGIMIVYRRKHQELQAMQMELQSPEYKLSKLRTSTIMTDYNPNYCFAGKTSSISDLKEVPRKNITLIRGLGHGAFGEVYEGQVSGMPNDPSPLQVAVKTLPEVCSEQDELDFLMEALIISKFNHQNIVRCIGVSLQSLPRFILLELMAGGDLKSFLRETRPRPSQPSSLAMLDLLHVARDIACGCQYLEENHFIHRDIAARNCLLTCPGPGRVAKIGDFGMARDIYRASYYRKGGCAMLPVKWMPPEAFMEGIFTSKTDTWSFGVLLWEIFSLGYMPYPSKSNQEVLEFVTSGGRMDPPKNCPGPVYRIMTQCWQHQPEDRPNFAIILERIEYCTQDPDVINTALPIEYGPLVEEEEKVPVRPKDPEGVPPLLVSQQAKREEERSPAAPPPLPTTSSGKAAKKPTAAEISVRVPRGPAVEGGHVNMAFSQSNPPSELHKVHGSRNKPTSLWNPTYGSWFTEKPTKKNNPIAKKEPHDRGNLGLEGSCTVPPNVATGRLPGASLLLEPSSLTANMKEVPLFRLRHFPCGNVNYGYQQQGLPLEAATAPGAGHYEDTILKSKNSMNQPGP
As to the kind of experiment: Assay of activity on Ba/F3(EML4-ALK) cells (CTG, 72 h). In kind it is cell-based. The following applies: read-out: IC50 (nM) Ba/F3(EML4-ALK). The procedure: Assay of activity on Ba/F3(EML4-ALK) cells
(1) Ba/F3(EML4-ALK) cells were cultured according to the requirements of ATCC, incubated in an incubator at 37° C. and 5% CO2, and analyzed by index; cells with viability of >90% can be used in the assay, and cells were seeded in a 384-well plate (PerkinElmer, 6007680) with 700 cells/well, 30 μl/well.
(2) A compound stock solution was prepared, and diluted 3× to obtain a compound dilution; 30 nL of the serial dilution was added to a 384-well plate (784075, Greiner) by Echo 550, and cells were incubated in an incubator at 37° C. and 5% CO2 for 72 h.
(3) 30 μL of CTG was added to each well, and the 384-well plate was shaken on a Plate shaker (QILINBEIER, QB-9002); the 384-well plate was incubated in the dark at 37° C. and 5% CO2 for 30 min, and the chemiluminescence value was read by Envision (PerkinElmer, EnVision 2104).
The percent inhibition rate (% inhibition) was calculated by the formula below
LUMcmpd: Luminescence value of assay compound.
LUMpositive: Average LUM value of positive drug at a concentration of 10 μM.
LUM^vehicle: Average LUM value of negative control group without drug treatment.
The nonlinear regression curve (dose response-variable slope) between the value of inhibition rate (%) and the logarithm of compound concentration was fitted with graphpad prism 8.0, the effect dose curve of compound was drawn, and the IC50 value was calculated.
Y=Bottom+(Top−Bottom)/(1+10^((LogIC50−X)*HillSlope))
X-axis: logarithm of compound concentration; Y axis: inhibition rate (% inhibition).

Bounds are passed on as bounds.

Chain of Ba/F3(EGFR^Del19/T790M/C797S) cells (P00533 with tags, fused parts or gaps DEL746-750/T790M/C797S): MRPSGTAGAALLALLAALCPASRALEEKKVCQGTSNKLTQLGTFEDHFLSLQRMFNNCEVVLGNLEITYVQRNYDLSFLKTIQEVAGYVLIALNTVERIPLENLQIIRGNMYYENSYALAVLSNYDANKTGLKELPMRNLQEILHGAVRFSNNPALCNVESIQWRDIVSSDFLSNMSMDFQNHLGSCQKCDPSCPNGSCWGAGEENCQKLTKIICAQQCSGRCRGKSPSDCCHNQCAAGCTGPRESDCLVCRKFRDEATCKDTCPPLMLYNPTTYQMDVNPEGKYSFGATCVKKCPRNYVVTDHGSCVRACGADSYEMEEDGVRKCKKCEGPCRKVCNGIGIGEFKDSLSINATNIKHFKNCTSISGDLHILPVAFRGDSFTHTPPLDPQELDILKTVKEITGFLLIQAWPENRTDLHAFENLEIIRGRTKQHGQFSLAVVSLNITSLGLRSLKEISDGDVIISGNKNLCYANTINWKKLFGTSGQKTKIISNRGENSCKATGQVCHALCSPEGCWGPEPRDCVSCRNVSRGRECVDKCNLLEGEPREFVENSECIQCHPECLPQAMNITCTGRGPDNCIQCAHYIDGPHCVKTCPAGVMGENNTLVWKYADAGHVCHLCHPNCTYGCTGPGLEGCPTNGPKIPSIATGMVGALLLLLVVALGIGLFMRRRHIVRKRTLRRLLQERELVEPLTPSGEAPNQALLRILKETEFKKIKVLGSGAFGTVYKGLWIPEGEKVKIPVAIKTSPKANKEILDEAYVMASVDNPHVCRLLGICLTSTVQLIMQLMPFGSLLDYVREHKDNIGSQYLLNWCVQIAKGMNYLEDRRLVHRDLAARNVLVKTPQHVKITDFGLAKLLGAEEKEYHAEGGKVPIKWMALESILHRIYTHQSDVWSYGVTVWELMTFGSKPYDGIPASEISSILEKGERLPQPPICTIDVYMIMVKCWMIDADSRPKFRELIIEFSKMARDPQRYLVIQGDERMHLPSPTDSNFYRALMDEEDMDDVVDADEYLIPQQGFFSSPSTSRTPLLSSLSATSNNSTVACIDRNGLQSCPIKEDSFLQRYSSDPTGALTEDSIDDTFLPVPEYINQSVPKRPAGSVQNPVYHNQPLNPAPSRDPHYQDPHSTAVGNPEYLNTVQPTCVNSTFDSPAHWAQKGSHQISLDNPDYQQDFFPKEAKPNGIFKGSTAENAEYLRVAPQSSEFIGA

As to `COc1cc(N2CCC(N3CCN(CCCCCC#Cc4ccc5c(c4)CN(C4CCC(=O)NC4=O)C5=O)CC3)CC2)c(C)cc1Nc1ncc(Br)c(Nc2ccc3nccnc3c2P(C)(C)=O)n1` (stereo not shown) [Compound C163, 3-(5-(7-(4-(1-(4-((5-bromo-4-((5-(dimethylphosphoryl)quinoxalin-6-yl)amino)pyrimidin-2-yl)amino)-5-methoxy-2-methylphenyl)piperidin-4-yl)piperazin-1-yl)hept-1-yn-1-yl)-1-oxoisoindolin-2-yl)piperidine-2,6-dione], the GI50 (in test [1]; at Ba/F3(EML4-ALK) cells) was 1 to 100 nM in each case.
Consider `COc1cc(N2CCC3(CCN(CCCCCCC#Cc4cccc5c4CN(C4CCC(=O)NC4=O)C5=O)CC3)CC2)c(C)cc1Nc1ncc(Br)c(Nc2ccc3nccnc3c2P(C)(C)=O)n1` (stereo not shown) [Compound C172, 3-(4-(8-(9-(4-((5-bromo-4-((5-(dimethylphosphoryl)quinoxalin-6-yl)amino)pyrimidin-2-yl)amino)-5-methoxy-2-methylphenyl)-3,9-diazaspiro[5.5]undecan-3-yl)oct-1-yn-1-yl)-1-oxoisoindolin-2-yl)piperidine-2,6-dione], for which the GI50 (in test [1]; on Ba/F3(EML4-ALK) cells) was 1 to 100 nM in each case.
As to `COc1cc(N2CCC3(CCN(CCCCCCCC#Cc4cccc5c4CN(C4CCC(=O)NC4=O)C5=O)CC3)CC2)c(C)cc1Nc1ncc(Br)c(Nc2ccc3nccnc3c2P(C)(C)=O)n1` (stereo not shown) [Compound C173, 3-(4-(9-(9-(4-((5-bromo-4-((5-(dimethylphosphoryl)quinoxalin-6-yl)amino)pyrimidin-2-yl)amino)-5-methoxy-2-methylphenyl)-3,9-diazaspiro[5.5]undecan-3-yl)non-1-yn-1-yl)-1-oxoisoindolin-2-yl)piperidine-2,6-dione], the GI50 (in test [1]; on Ba/F3(EML4-ALK) cells) was 1 to 100 nM in each case.
Take `COc1cc(N2CCC(N3CCN(CCCOCC#Cc4cccc5c4CN(C4CCC(=O)NC4=O)C5=O)CC3)CC2)ccc1Nc1ncc(Cl)c(Nc2ccccc2P(C)(C)=O)n1` (stereo not shown) [Compound C181, 3-(4-(3-(3-(4-(1-(4-((5-chloro-4-((2-(dimethylphosphoryl)phenyl)amino)pyrimidin-2-yl)amino)-3-methoxyphenyl)piperidin-4-yl)piperazin-1-yl)propoxy)prop-1-yn-1-yl)-1-oxoisoindolin-2-yl)piperidine-2,6-dione]: the GI50 (in test [1]; at Ba/F3(EML4-ALK) cells) was 1 to 100 nM in each case.
Consider `COc1cc(N2CCC(N3CCN(CCCCOCC#Cc4cccc5c4CN(C4CCC(=O)NC4=O)C5=O)CC3)CC2)ccc1Nc1ncc(Cl)c(Nc2ccccc2P(C)(C)=O)n1` (stereo not shown) [Compound C182, 3-(4-(3-(4-(4-(1-(4-((5-chloro-4-((2-(dimethylphosphoryl)phenyl)amino)pyrimidin-2-yl)amino)-3-methoxyphenyl)piperidin-4-yl)piperazin-1-yl)butoxy)prop-1-yn-1-yl)-1-oxoisoindolin-2-yl)piperidine-2,6-dione], for which the GI50 (in test [1]; on Ba/F3(EML4-ALK) cells) was 1 to 100 nM in each case.
As for `COc1cc(N2CCC(N3CCN(CCOCC#Cc4cc(F)cc5c4CN(C4CCC(=O)NC4=O)C5=O)CC3)CC2)ccc1Nc1ncc(Cl)c(Nc2ccccc2P(C)(C)=O)n1` (stereo not shown) [Compound C184, 3-(4-(3-(2-(4-(1-(4-((5-chloro-4-((2-(dimethylphosphoryl)phenyl)amino)pyrimidin-2-yl)amino)-3-methoxyphenyl)piperidin-4-yl)piperazin-1-yl)ethoxy)prop-1-yn-1-yl)-6-fluoro-1-oxoisoindolin-2-yl)piperidine-2,6-dione], the GI50 (in test [1]; at Ba/F3(EML4-ALK) cells) was 1 to 100 nM each time.
As for `COc1cc(N2CCC(N3CCN(CCCCC#Cc4cccc5c4CN(C4CCC(=O)NC4=O)C5=O)CC3)CC2)c(C)cc1Nc1ncc(Br)c(Nc2ccc3nccnc3c2P(C)(C)=O)n1` (stereo not shown) [Compound C186, 3-(4-(6-(4-(1-(4-((5-bromo-4-((5-(dimethylphosphoryl)quinoxalin-6-yl)amino)pyrimidin-2-yl)amino)-5-methoxy-2-methylphenyl)piperidin-4-yl)piperazin-1-yl)hex-1-yn-1-yl)-1-oxoisoindolin-2-yl)piperidine-2,6-dione], the GI50 (in test [1]; at Ba/F3(EML4-ALK) cells) was 1 to 100 nM throughout.
In the case of `COc1cc(N2CCC(N3CCN(CCCCCCCCC#Cc4cccc5c4CN(C4CCC(=O)NC4=O)C5=O)CC3)CC2)c(C)cc1Nc1ncc(Br)c(Nc2ccc3nccnc3c2P(C)(C)=O)n1` (stereo not shown) [Compound C188, 3-(4-(10-(4-(1-(4-((5-bromo-4-((5-(dimethylphosphoryl)quinoxalin-6-yl)amino)pyrimidin-2-yl)amino)-5-methoxy-2-methylphenyl)piperidin-4-yl)piperazin-1-yl)dec-1-yn-1-yl)-1-oxoisoindolin-2-yl)piperidine-2,6-dione], the GI50 in test [1] is 1 to 100 nM; on Ba/F3(EML4-ALK) cells, more than 300 nM.
As to `COc1cc(N2CCC3(CCN(CCCCCCCCC#Cc4cccc5c4CN(C4CCC(=O)NC4=O)C5=O)CC3)CC2)c(C)cc1Nc1ncc(Br)c(Nc2ccc3nccnc3c2P(C)(C)=O)n1` (stereo not shown) [Compound C189, 3-(4-(10-(9-(4-((5-bromo-4-((5-(dimethylphosphoryl)quinoxalin-6-yl)amino)pyrimidin-2-yl)amino)-5-methoxy-2-methylphenyl)-3,9-diazaspiro[5.5]undecan-3-yl)dec-1-yn-1-yl)-1-oxoisoindolin-2-yl)piperidine-2,6-dione], the GI50 was 1 to 100 nM in test [1] and 101 to 200 nM at Ba/F3(EML4-ALK) cells.
Consider `COc1cc(N2CCC3(CCN(CCCCCC#Cc4ccc5c(c4)CN(C4CCC(=O)NC4=O)C5=O)CC3)CC2)c(C)cc1Nc1ncc(Br)c(Nc2ccc3nccnc3c2P(C)(C)=O)n1` (stereo not shown) [Compound C191, 3-(5-(7-(9-(4-((5-bromo-4-((5-(dimethylphosphoryl)quinoxalin-6-yl)amino)pyrimidin-2-yl)amino)-5-methoxy-2-methylphenyl)-3,9-diazaspiro[5.5]undecan-3-yl)hept-1-yn-1-yl)-1-oxoisoindolin-2-yl)piperidine-2,6-dione], for which the GI50 is 1 to 100 nM in test [1] and 101 to 200 nM on Ba/F3(EML4-ALK) cells.
For the molecule `COc1cc(N2CCC(N3CCN(CCCCCCCC#Cc4ccc5c(c4)CN(C4CCC(=O)NC4=O)C5=O)CC3)CC2)ccc1Nc1ncc(Cl)c(Nc2ccccc2P(C)(C)=O)n1` (stereo not shown) [Compound C195, 3-(5-(9-(4-(1-(4-((5-chloro-4-((2-(dimethylphosphoryl)phenyl)amino)pyrimidin-2-yl)amino)-3-methoxyphenyl)piperidin-4-yl)piperazin-1-yl)non-1-yn-1-yl)-1-oxoisoindolin-2-yl)piperidine-2,6-dione], the GI50 (in test [1]; at Ba/F3(EML4-ALK) cells) was 1 to 100 nM throughout.
Consider `COc1cc(N2CCC(N3CCN(CCCCCCCCC#Cc4ccc5c(c4)CN(C4CCC(=O)NC4=O)C5=O)CC3)CC2)ccc1Nc1ncc(Cl)c(Nc2ccccc2P(C)(C)=O)n1` (stereo not shown) [Compound C196, 3-(5-(10-(4-(1-(4-((5-chloro-4-((2-(dimethylphosphoryl)phenyl)amino)pyrimidin-2-yl)amino)-3-methoxyphenyl)piperidin-4-yl)piperazin-1-yl)dec-1-yn-1-yl)-1-oxoisoindolin-2-yl)piperidine-2,6-dione], for which the GI50 (in test [1]; on Ba/F3(EML4-ALK) cells) was 1 to 100 nM each time.
On to `COc1cc(N2CCC3(CCN(CCCCCCCOc4cccc5c4CN(C4CCC(=O)NC4=O)C5=O)CC3)CC2)c(C)cc1Nc1ncc(Br)c(Nc2ccc3nccnc3c2P(C)(C)=O)n1` (stereo not shown) [Compound C211, 3-(4-((7-(9-(4-((5-bromo-4-((5-(dimethylphosphoryl)quinoxalin-6-yl)amino)pyrimidin-2-yl)amino)-5-methoxy-2-methylphenyl)-3,9-diazaspiro[5.5]undecan-3-yl)heptyl)oxy)-1-oxoisoindolin-2-yl)piperidine-2,6-dione], for which the GI50 (in test [1]; on Ba/F3(EML4-ALK) cells) was 1 to 100 nM throughout.
On to `COc1cc(N2CCC3(CCN(CCOCC#Cc4cc(F)cc5c4CN(C4CCC(=O)NC4=O)C5=O)CC3)CC2)c(C)cc1Nc1ncc(Br)c(Nc2ccc3nccnc3c2P(C)(C)=O)n1` (stereo not shown) [Compound C310, 3-(4-(3-(2-(9-(4-((5-bromo-4-((5-(dimethylphosphoryl)quinoxalin-6-yl)amino)pyrimidin-2-yl)amino)-5-methoxy-2-methylphenyl)-3,9-diazaspiro[5.5]undecan-3-yl)ethoxy)prop-1-yn-1-yl)-6-fluoro-1-oxoisoindolin-2-yl)piperidine-2,6-dione], for which the GI50 (in test [1]; at Ba/F3(EML4-ALK) cells) was 1 to 100 nM in each case.

For the origin of these results see patent publication US20220306659A1, “COMPOUND INHIBITING AND INDUCING DEGRADATION OF EGFR AND ALK” (BEIJING TIDE PHARMACEUTICAL CO., LTD., priority 2019, published 2022).
